Assay results: patent US5376643A, “Composition for application to hair” (priority 1986, dated 1994)
Like-named read-outs stand apart in the source and are kept apart here.

Columns and labels:
grayed hair [1] = assay: Half-Head technique: preventing graying of the hair and restoring grayed hair to its natural color (Example 1 procedure); type: in vivo, human (men and women); conditions: for effect of preventing graying and restoring grayed hair, compared with Example 2 / effect on graying, compared with Example 12 / amount of grayed hair / effect of preventing graying of the hair and restoring grayed hair to its natural color / effect of preventing graying and restoring grayed hair: in words; for effect of preventing graying and restoring grayed hair, compared with Example 2: hair cream, used instead of N^6,O^2'-DScAMP-Na; for effect on graying, compared with Example 12: hair tonics, used in place of FAD-2Na; for Comp. Sample is better / Comp. Sample is somewhat better / Same / This Invention is better / This Invention is somewhat better: 3 months; for amount of grayed hair / effect of preventing graying of the hair and restoring grayed hair to its natural color: compared with comparative sample free from the component; for effect of preventing graying and restoring grayed hair: hair tonic
From the text: The effectiveness of the hair tonics thus prepared were estimated in the following manner: Twenty statistically equivalent persons (comprising men and women aged 30 to 60 years) were selected and Samples of the hair tonics were applied to their scalps in accordance with the Half-Head technique, in which Samples were separately applied to the right and left half portions of the scalp, twice a day (in the morning and at night) for three months. The effects of preventing graying of the hair and restoring grayed hair to its natural color were estimated by comparing the conditions of the portions observed before and after the application of Samples.

[2] = Acute Oral Toxicity (rat); conditions: in vivo
[3] = in vivo
guinea pig [4] = assay: Phototoxicity (guinea pig); type: in vivo
human = conditions: in vivo
guinea pig [5] = assay: Photosensitization (guinea pig); type: in vivo
guinea pig [6] = conditions: in vivo
guinea pig [7] = assay: Skin Sensitization (guinea pig); type: in vivo
rabbit = conditions: in vivo
scalp [8] = conditions: in vivo
From the text: (§1) Twenty statistically equivalent persons (comprising men and women aged 30 to 60 years) were selected and Samples of the hair tonics were applied to their scalps in accordance with the Half-Head technique, in which Samples were separately applied to the right and left half portions of the scalp, twice a day (in the morning and at night) for three months. The effects of preventing graying of the hair and restoring grayed hair to its natural color were estimated by comparing the conditions of the portions observed before and after the application of Samples.

scalp [9] = assay: Condition of the scalp during and after use for 3 months
From the text: as §1

[10] = Safety examination (overall, in words); conditions: same procedures as in Example 1
grayed hair [11] = assay: Half-Head technique, two groups of 20 persons: preventing graying of the hair and restoring grayed hair (Example 6 procedure); type: in vivo, human (men and women); conditions: in words; hair creams
From the text: Two groups each of which comprised 20 persons (50 to 60 years old; comprising men and women) were selected and the hair tonic Samples (S-I and S-II) were separately applied to scalp of each person of one group in accordance with Half-Head technique wherein the hair tonics I and II were separately applied to the right half of the scalp and the left half thereof, on the other hand Samples (S-II and S-III) were likewise separately applied to each person of the other group in the same manner twice a day (in the morning and at night) for 3 months.

[12] = in words; cited from earlier work
[13] = in words; cited from earlier work; remark: listed apart in the source
[14] = Table III, of 20 persons, hair tonic with 0.05% vs tonic without, twice a day
[15] = Table VIII, milky lotion with 0.2% vs lotion without
[16] = Table XXV, hair tonic with 0.1% vs tonic without
[17] = Table X, hair cream with 0.8% vs cream without

Compound: Nc1ncnc2c1nc(Sc1ccc(Cl)cc1)n2[C@@H]1O[C@@H]2COP(=O)(O)O[C@H]2[C@H]1O [8-C1PhScAMP-Na]
- effect of preventing graying and restoring grayed hair, compared with Example 2 (grayed hair [1]): Substantially the same excellent effect as in Example 2

Compound: CC(=O)Nc1ncnc2c1nc(N)n2C1OC2COP(=O)([O-])OC2C1OC(C)=O.[Na+] (stereo not drawn) [N^6,O^2'-DA-8-NH2 cAMP-Na]
- effect of preventing graying and restoring grayed hair, compared with Example 2 (grayed hair [1]): Substantially the same excellent effect as in Example 2

Compound: CCCCCC(=O)Nc1ncnc2c1ncn2C1OC2COP(=O)([O-])OC2C1O.[Na+] (stereo not drawn) [N^6-MHcAMP-Na]
- effect on graying, compared with Example 12 (grayed hair [1]): substantially the same effect as in Example 12

Compound: CCCC(=O)Nc1ncnc2c1ncn2[C@@H]1O[C@@H]2COP(=O)(O)O[C@H]2[C@H]1OC(=O)CCC [N^6,O^2'-DBcAMP-Na]
- LD50 [2]: ≥ 5000 mg/kg
- safety [3]: extremely high
- Phototoxicity (guinea pig [4]): negative
- Human Patch Test (human): non-irritant
- Photosensitization (guinea pig [5]): negative
- Comp. Sample is better (grayed hair [1]; [14]): 0
- Comp. Sample is somewhat better (grayed hair [1]; [14]): 0
- Same (grayed hair [1]; [14]): 2
- This Invention is better (grayed hair [1]; [14]): 11
- This Invention is somewhat better (grayed hair [1]; [14]): 7
- amount of grayed hair (grayed hair [1]): reduced the amount of grayed hair more effectively than the comparative hair tonic
- effect of preventing graying of the hair and restoring grayed hair to its natural color (grayed hair [1]): remarkable effect
- effect of preventing graying and restoring grayed hair (grayed hair [1]; amount of 0.005%): little effect
- effect of preventing graying and restoring grayed hair (grayed hair [1]; amount of 0.01): effective
- Primary Skin Irritation (guinea pig [6]): non-irritant
- Skin Sensitization (guinea pig [7]): negative
- Ocular-mucous Membrane Irritation (rabbit): non-irritant
- abnormality in the condition of the scalp (scalp [8]): No abnormality was observed

Compound: Nc1ncnc2c1nc(Cl)n2[C@@H]1O[C@@H]2COP(=O)(O)O[C@H]2[C@H]1O [8-ClcAMP-Na]
- effect of preventing graying and restoring grayed hair, compared with Example 2 (grayed hair [1]): Substantially the same excellent effect as in Example 2

Compound: CCCCCCCC(=O)OC1C2OP(=O)([O-])OCC2OC1n1cnc2c(N)ncnc21.[Na+] (stereo not drawn) [O^2'-MOcAMP-Na]
- effect on graying, compared with Example 12 (grayed hair [1]): substantially the same effect as in Example 12

Compound: Nc1ncnc2c1ncn2[C@@H]1O[C@@H]2COP(=O)([O-])O[C@H]2[C@H]1OC(=O)CCC(=O)O.[Na+] [O^2'-MScAMP-Na]
- abnormality in the condition of the scalp (scalp [9]): no abnormality was observed
- Comp. Sample is better (grayed hair [1]; [15]): 0
- Comp. Sample is somewhat better (grayed hair [1]; [15]): 0
- Same (grayed hair [1]; [15]): 3
- This Invention is better (grayed hair [1]; [15]): 10
- This Invention is somewhat better (grayed hair [1]; [15]): 7
- amount of grayed hair (grayed hair [1]): the amount of grayed hair was reduced
- effect of preventing graying of the hair and restoring grayed hair to its natural color (grayed hair [1]): excellent effect
- safety [10]: had no problems such as skin irritation and thus had extremely high safety

Compound: Nc1ncnc2c1nc(O)n2[C@@H]1O[C@@H]2COP(=O)(O)O[C@H]2[C@H]1O [8-OHcAMP-Na]
- effect of preventing graying and restoring grayed hair, compared with Example 2 (grayed hair [1]): Substantially the same excellent effect as in Example 2

Compound: Cc1cc2nc3c(=O)[nH]c(=O)nc-3n(C[C@H](O)[C@H](O)[C@H](O)COP(=O)(O)OP(=O)(O)OC[C@H]3O[C@@H](n4cnc5c(N)ncnc54)[C@H](O)[C@@H]3O)c2cc1C [FAD-2Na]
- Comp. Sample is better (grayed hair [1]; [16]): 0
- Comp. Sample is somewhat better (grayed hair [1]; [16]): 0
- Same (grayed hair [1]; [16]): 4
- This Invention is better (grayed hair [1]; [16]): 8
- This Invention is somewhat better (grayed hair [1]; [16]): 8
- safety [10]: had no problems such as skin irritation and thus had extremely high safety

Compound: CCCC(=O)O[C@@H]1[C@@H]2OP(=O)(O)OC[C@H]2O[C@H]1n1cnc2c(N)ncnc21 [O^2 -MBcAMP-Na]
- effect on graying, compared with Example 7 (grayed hair [11]): approximately the same results as those in Example 7

Compound: CCCC(=O)O[C@@H]1[C@@H]2OP(=O)(O)OC[C@H]2O[C@H]1n1c(Br)nc2c(N)ncnc21 [O^2'-MB-8BrcAMP-Na]
- effect of preventing graying and restoring grayed hair, compared with Example 2 (grayed hair [1]): Substantially the same excellent effect as in Example 2

Compound: C=C1CC[C@H](O)C/C1=C/C=C1\CCC[C@]2(C)[C@@H]([C@H](C)CCCC(C)C)CC[C@@H]12 [vitamin D3]
- stability in the air [12]: extremely unstable in the air and easily undergo oxidation
- side-effects [13]: tend to cause side-effectssuch as hypervitaminosis D or hypercalcemia

Compound: CCCC(=O)Nc1ncnc2c1ncn2[C@@H]1O[C@@H]2COP(=O)(O)O[C@H]2[C@H]1O [N^6-MBcAMP-Na]
- abnormality in the condition of the scalp (scalp [9]): no abnormality was observed
- Comp. Sample is better (grayed hair [1]; [17]): 0
- Comp. Sample is somewhat better (grayed hair [1]; [17]): 0
- Same (grayed hair [1]; [17]): 4
- This Invention is better (grayed hair [1]; [17]): 9
- This Invention is somewhat better (grayed hair [1]; [17]): 7
- amount of grayed hair (grayed hair [1]): the amount of grayed hair was reduced
- effect of preventing graying of the hair and restoring grayed hair to its natural color (grayed hair [1]): excellent effect
- safety [10]: had no problems such as skin irritation and thus had extremely high safety

Compound: Cc1cc2nc3c(=O)[nH]c(=O)nc-3n(C[C@H](O)[C@H](O)[C@H](O)COP(=O)(O)OP(=O)(O)OC[C@H]3O[C@@H](n4cnc5c(N)ncnc54)[C@H](O)[C@@H]3O)c2cc1C [FAD, flavin adenine dinucleotide]
- effect on graying, compared with Example 7 (grayed hair [11]): approximately the same results as those in Example 7

Compound: Nc1ncnc2c1nc(Br)n2[C@@H]1O[C@@H]2COP(=O)(O)O[C@H]2[C@H]1O [8-BrcAMP-Na]
- effect of preventing graying and restoring grayed hair, compared with Example 2 (grayed hair [1]): Substantially the same excellent effect as in Example 2

Compound: CCCCCCCCC(=O)O [nonanoic acid]
- effect on graying, compared with Example 7 (grayed hair [11]): approximately the same results as in Example 7

Compound: Nc1ncnc2c1nc(S)n2[C@@H]1O[C@@H]2COP(=O)(O)O[C@H]2[C@H]1O [8-SHcAMP-Na]
- effect of preventing graying and restoring grayed hair, compared with Example 2 (grayed hair [1]): Substantially the same excellent effect as in Example 2

Compound: CCCCCCCCCCCOCC(COCCCCCCCCCCC)OCCCCCCCCCCC [triundecyl glycerylether]
- effect on graying, compared with Example 7 (grayed hair [11]): approximately the same results as in Example 7
